{
  "source": "patent US20240325330A1",
  "about": "“NEW METHOD TO TREAT ACIDOSIS RELATED DISEASES WITH ACETOACETATE” (INSTITUT NATIONAL DE LA SANTÉ ET DE LA RECHERCHE MÉDICALE, priority 2021, published 2024)",
  "key": {"[1]": {"test_system": "human monocytes differentiated into macrophages under lactic acidosis (LA-Mφ)", "assay": "Mitochondrial membrane potential (MitoTracker Green / Deep Red flow cytometry) in macrophages under lactic acidosis", "assay_type": "cell-based", "settings": "5 mM AcAc, 10 mM lactic acid (pHe 6.5), LA-Mφ+AcAc vs LA alone; data not shown", "procedure": "Peripheral blood mononuclear cells (PBMC) were obtained from healthy human volunteers (Blood collection center, Angers, France; agreement ANG-2017-01) by standard density-gradient centrifugation on lymphocyte separation medium (Eurobio, Courtaboeuf, France). CD14+ monocytes were then isolated by positive magnetic cell-sorting (Miltenyi Biotec, Bergisch Gladbach, Germany). Monocytes (1×10^6 cells/mL) were cultured in complete medium (CM) consisting of RPMI 1640 (Lonza, Verviers, Belgium) supplemented with 10% fetal calf serum (FCS) (Eurobio), 2 mM L-glutamine, 1 mM sodium pyruvate, 0.1 mM non-essential amino acids, 10 mM HEPES, 100 U/mL penicillin and 100 μg/mL streptomycin (all from Lonza) in the presence of 50 ng/mL GM-CSF (R&D Systems, Minneapolis, MN). […]\nMitochondrial membrane potential was assessed by incubating with 10 nM MitoTracker Green and 5 nM MitoTracker DeepRed (Thermo Fisher Scientific, Waltham, MA) in PBS containing 1% (w/v) BSA in PBS (PBS/BSA) at 37° C. for 15 min. […] Flow cytometry data were acquired with a FACSCanto II flow cytometer (BD Biosciences, San Jose, CA) and analyzed with FlowJo software (Tree Star, Ashland, OR)."}, "[2]": {"test_system": "human monocytes differentiated into macrophages under lactic acidosis (LA-Mφ)", "assay": "Intracellular ATP levels in macrophages under lactic acidosis", "assay_type": "cell-based", "settings": "5 mM AcAc, 10 mM lactic acid, FIG. 1A", "procedure": "(§1) Peripheral blood mononuclear cells (PBMC) were obtained from healthy human volunteers (Blood collection center, Angers, France; agreement ANG-2017-01) by standard density-gradient centrifugation on lymphocyte separation medium (Eurobio, Courtaboeuf, France). CD14+ monocytes were then isolated by positive magnetic cell-sorting (Miltenyi Biotec, Bergisch Gladbach, Germany). […]\nThe intracellular levels of ATP in whole-cell lysates were determined with enzymatic assays (Abcam, Cambridge, UK), according to the manufacturer's instructions. ATP was quantified in (i) macrophages generated in the absence (Mφ) or presence of lactic acid (LA-Mφ) or of lactic acid and acetoacetate (LA-Mφ+AcAc), (ii) macrophages with or without depolarized mitochondria (“Depol” and “Pol” populations, respectively) isolated from day 3 LA-Mφ by flow cytometry using MitoTracker Green and MitoTracker Deep Red probes (purity>99%) and, (iii) PBMC isolated from septic shock patients (n=3) were cultured for 24 h in a medium containing 0.5 g/L glucose, supplemented with 5 mM of acetoacetate (AcAc) or with 2 g/L of glucose (Glc). […]"}, "[3]": {"test_system": "human monocytes differentiated into macrophages under lactic acidosis (LA-Mφ)", "assay": "Mitochondrial mass (mtDNA copy number) and NRF2 mRNA expression", "assay_type": "cell-based", "settings": "data not shown", "from_the_text": "as §1\nCells were lysed in Trizol reagent (Life Technologies, Thermo Fisher Scientific), and total RNA was extracted with the RNeasy Micro kit (Qiagen, Hilden, Germany) and then reverse-transcribed with the Superscript II reverse transcriptase (Life Technologies). Levels of mRNA encoding the indicated proteins were then analyzed by subjecting the cDNA obtained by reverse transcription to qPCR. Relative quantification was performed by the 2^−ΔΔCT method, with RPS18, EF1A, TBP, RPL13A and PPIA as references. Results are expressed as relative mRNA levels.\nMitochondrial DNA (mtDNA) content was determined by qPCR with primers specific for the ND4 and COX1 genes, and was weighted according to nuclear DNA levels, which were quantified by analyzing […], as previously described (23)."}, "[4]": {"test_system": "human monocytes exposed to lactic acid", "assay": "Intracellular pH (SNARF probe, flow cytometry)", "assay_type": "cell-based", "settings": "10 mM lactic acid with 5 mM AcAc; FIG. 2E", "procedure": "as §1\nIntracellular pH (pHi) was measured by incubating 3×10^5 Mφ with 500 nM pH-sensitive dye carboxy-SNARF-AM (Life Technologies, Carlsbad, CA) in PBS/BSA at 37° C. for 20 min and then performing flow cytometry analysis. We determined pHi as the ratio of fluorescence intensities at two emission wavelengths (585/42 nm and 700/60 nm PMTs). SNARF fluorescence in macrophages was calibrated with a high-potassium buffer (39.6 mM NaCl, 120 mM KCl, 2.3 mM CaCl2), 1 mM MgCl2, 5 mM HEPES, 10 mM glucose) at pH values of 6.5 to 8, in the presence of 10 μM nigericin (Sigma-Aldrich); nigericin exchanges external potassium with internal protons to equilibrate extracellular and intracellular pH."}, "[5]": {"test_system": "human monocyte-derived macrophages (Mφ, LA-Mφ)", "assay": "Cytokine secretion after LPS stimulation (ELISA)", "assay_type": "cell-based", "settings": "day 5, LPS 16 h, FIG. 3", "procedure": "Peripheral blood mononuclear cells (PBMC) were obtained from healthy human volunteers (Blood collection center, Angers, France; agreement ANG-2017-01) by standard density-gradient centrifugation on lymphocyte separation medium (Eurobio, Courtaboeuf, France). CD14+ monocytes were then isolated by positive magnetic cell-sorting (Miltenyi Biotec, Bergisch Gladbach, Germany). Monocytes (1×10^6 cells/mL) were cultured in complete medium (CM) consisting of RPMI 1640 (Lonza, Verviers, Belgium) supplemented with 10% fetal calf serum (FCS) (Eurobio), 2 mM L-glutamine, 1 mM sodium pyruvate, 0.1 mM non-essential amino acids, 10 mM HEPES, 100 U/mL penicillin and 100 μg/mL streptomycin (all from Lonza) in the presence of 50 ng/mL GM-CSF (R&D Systems, Minneapolis, MN).\nExperiments were performed in the presence of 10 mM lactic acid (Sigma-Aldrich, St Louis, MO) resulting in a pHe of 6.5 to generate LA-Mφ (lactic acidosis conditioning), 12.35 mM HCl to reach a final pHe of 6.5 and to generate HCl-Mφ(acidosis conditioning), 10 mM sodium lactate (Sigma-Aldrich) to generate lactate-Mφ (lactosis conditioning, pH 7.3), in the absence or presence of 5 mM lithium acetoacetate (AcAc) (Sigma-Aldrich, St Louis, MO).\nDay 5 GM-Mϕ, GM+LA-Mϕ and GM+LA-Mϕ+AcAc were stimulated with 200 ng/mL LPS (Sigma-Aldrich). Cytokines were quantified by ELISA (R&D Systems) in the supernatants collected at 16 h."}, "[6]": {"test_system": "PBMC from septic shock patients", "assay": "Mitochondrial depolarization in cultured PBMC from sepsis patients", "assay_type": "cell-based, human", "settings": "24 h, medium with 5 mM AcAc, FIG. 4B", "procedure": "Mitochondrial membrane potential was assessed by incubating with 10 nM MitoTracker Green and 5 nM MitoTracker DeepRed (Thermo Fisher Scientific, Waltham, MA) in PBS containing 1% (w/v) BSA in PBS (PBS/BSA) at 37° C. for 15 min. Cells were washed and incubated with 0.5 μg/mL DAPI to exclude dead cells. Flow cytometry data were acquired with a FACSCanto II flow cytometer (BD Biosciences, San Jose, CA) and analyzed with FlowJo software (Tree Star, Ashland, OR).\n(§2) Peripheral blood mononuclear cells (PBMC) from septic patients and healthy subjects were purified by standard density-gradient centrifugation on lymphocyte separation medium (Eurobio, Courtaboeuf, France). PBMC were cultured for 24 h in a medium consisting of RPMI 1640 medium with L-glutamine and without glucose (Lonza, Verviers, Belgium) and supplemented with 6% FCS (Eurobio), 3% autologous plasma, 0.5 g/L glucose, 100 U/mL penicillin and 100 μg/mL streptomycin (all from Lonza) in the presence of 2 ng/mL GM-CSF (R&D Systems). In some experiments, the culture medium was supplemented with 5 mM AcAc or adjusted to 4 g/L glucose. After 24 h culture, the percentage of cells with depolarized mitochondria was assessed as described above. After 3 days of culture, intracellular ATP has been quantified as described above."}, "[7]": {"test_system": "PBMC from septic shock patients", "assay": "Apoptosis of PBMC from septic shock patients (7-AAD, Annexin-V flow cytometry)", "assay_type": "cell-based, human", "settings": "5 mM AcAc, FIG. 4E", "procedure": "Apoptosis was assessed by flow cytometry in freshly purified PBMC or after 3-day culture with or without AcAc. Cells were labeled with 7-AAD, Annexin-V FITC and anti-CD14 APC monoclonal antibody (all from BD Biosciences, San Jose, CA) and apoptotic monocytes were defined as CD14+ Annexin-V+ cells.\nas §2"}},
  "data": [
    {"smiles": "CC(=O)CC(=O)[O-].[Li+]", "note": "[AcAc, lithium acetoacetate]", "values": [
      {"measurement": "mitochondrial depolarization", "setting": "[1]", "value": "did not exhibit the mitochondrial depolarization"},
      {"measurement": "intracellular levels of ATP", "setting": "[2]", "value": "restored the intracellular levels of ATP"},
      {"measurement": "mitochondrial mass", "setting": "[3]; LA-Mφ+AcAc (5 mM AcAc, 10 mM lactic acid)", "value": "no reduction of the mitochondrial mass"},
      {"measurement": "expression of NRF2", "setting": "[3]; LA-Mφ+AcAc relative to LA-Mφ", "value": "tend to increase"},
      {"measurement": "immediate short-term decrease in pHi induced by extracellular acidosis", "setting": "[4]", "value": "remained detectable"},
      {"measurement": "combined effect of AcAc and lactic acid on capacity to produce inflammatory cytokines and trophic factors", "setting": "[5]; LA-Mφ+AcAc", "value": "acted synergistically"},
      {"measurement": "cytokine phenotype of monocytes differentiated in the presence of AcAc", "setting": "[5]; ELISA", "value": "TNFαhigh IL-1βhigh IL-6high OSMhigh and VEGFhigh phenotype"},
      {"measurement": "percentage of cells with depolarized mitochondria", "setting": "[6]", "value": "significantly reduced"},
      {"measurement": "protection of patient PBMCs from death by apoptosis", "setting": "[7]", "value": "drastically protects"}
    ]}
  ]
}
